Test results from US6492137B1, “Response element compositions and assays employing same” (The Salk Institute for Biological Studies, priority 1989, dated 2002).
Residue numbers refer to the chain shown, from its start.

T1: TRβ (Homo sapiens, UniProt P10828)
T1 sequence (P10828 1-461): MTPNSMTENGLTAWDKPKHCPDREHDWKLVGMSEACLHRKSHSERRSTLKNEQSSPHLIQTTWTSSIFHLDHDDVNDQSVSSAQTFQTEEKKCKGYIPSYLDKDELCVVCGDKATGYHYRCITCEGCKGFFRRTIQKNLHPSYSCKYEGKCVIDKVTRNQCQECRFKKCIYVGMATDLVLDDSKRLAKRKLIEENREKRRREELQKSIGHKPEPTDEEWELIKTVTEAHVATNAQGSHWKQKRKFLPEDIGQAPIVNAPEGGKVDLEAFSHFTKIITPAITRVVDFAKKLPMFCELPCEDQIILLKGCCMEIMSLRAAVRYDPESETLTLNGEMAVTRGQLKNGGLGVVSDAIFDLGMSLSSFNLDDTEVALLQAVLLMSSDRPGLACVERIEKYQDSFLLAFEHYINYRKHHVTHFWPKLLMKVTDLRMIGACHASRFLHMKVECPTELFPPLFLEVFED

T2: RARα (Homo sapiens, UniProt P10276)
T2 sequence (P10276 1-462): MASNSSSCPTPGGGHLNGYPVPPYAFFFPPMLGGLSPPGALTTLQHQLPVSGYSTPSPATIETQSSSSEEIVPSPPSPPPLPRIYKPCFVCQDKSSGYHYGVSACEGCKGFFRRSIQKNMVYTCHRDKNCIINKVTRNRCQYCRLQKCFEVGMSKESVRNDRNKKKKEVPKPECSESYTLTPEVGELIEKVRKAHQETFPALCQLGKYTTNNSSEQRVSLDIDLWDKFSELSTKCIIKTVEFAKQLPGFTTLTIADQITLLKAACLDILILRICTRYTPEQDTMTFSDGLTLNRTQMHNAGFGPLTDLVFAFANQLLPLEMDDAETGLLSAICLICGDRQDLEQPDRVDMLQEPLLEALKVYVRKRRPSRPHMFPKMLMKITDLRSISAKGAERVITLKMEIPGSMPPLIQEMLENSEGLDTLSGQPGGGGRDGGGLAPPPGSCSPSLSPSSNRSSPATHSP

T3: RAR (Homo sapiens, UniProt P10276)
T3 construct: expressed in transfected cells; host or cells: CV-1 (monkey kidney)
T3 sequence (P10276 1-462): T2 sequence (P10276 1-462)

T4: Thyroid hormone receptor beta (TRβ), in CV-1 cells (Homo sapiens, UniProt P10828 P10828:1-461)
T4 sequence: T1 sequence (P10828 1-461)

T5: Retinoic acid receptor alpha (RARα), in CV-1 cells (Homo sapiens, UniProt P10276 P10276:1-462)
T5 sequence: T2 sequence (P10276 1-462)

B1: MHC-N (dsDNA)
DNA 1: AGCTGGAGGTGACAGGAGGACAGCAAGCT
DNA 2: AGCTTGCTGTCCTCCTGTCACCTCCAGCT
B2: MHC+1 (dsDNA)
DNA 1: AGCTGGAGGTGAACAGGAGGACAGCAAGCT
DNA 2: AGCTTGCTGTCCTCCTGTTCACCTCCAGCT
B3: TREp (dsDNA)
DNA 1: AGCTTCAGGTCATGACCTGAGAGCT
DNA 2: AGCTCTCAGGTCATGACCTGAAGCT
B4: MHC-R (dsDNA)
DNA 1: B2 DNA 1 with A21T
DNA 2: B2 DNA 2 with T10A
B5: MHC-T (dsDNA)
DNA 1: AGCTGGAGGTGACAGGAGGTCAGCAAGCT
DNA 2: AGCTTGCTGACCTCCTGTCACCTCCAGCT

How the values were obtained:
[1] = system: F9 teratocarcinoma stem cells; assay: CAT reporter transfection into RA responsive F9 teratocarcinoma stem cells; type: cell-based, mouse; details: RA 1 μM, 24 hours; no transfected receptor
Procedure: (§1) For cotransfection assays, a monkey kidney cell line CV-1 was kept in Dulbecco's modified Eagle's medium (DMEM) supplemented with 10% charcoal-resin double split calf bovine serum. Transfections were performed via calcium-phosphate precipitation method as described by Umesono, et al. in Cell 57: 1139-1146 (1989), with 0.5 μg of a pRS receptor expression plasmid, 1.0 μg of a reporter CAT plasmid, 5 μg of pRAS-βGAL [Umesono, et al., Cell 57: 1139-1146 (1989)] as an internal control, and 8.5 μg of carrier plasmid pUC19. The cells were transfected for 8 hours; after washing the DNA precipitates, the cells were then incubated for an additional 36 hours with or without the ligand (T3, 100 nM; RA, 1 μM; 1,25-(OH)2 vitamin D3, 100 nM). Cell extracts were prepared for βGAL and CAT assays, as described by Umesono, et al., supra. Transfection of F9 teratocarcinoma cells was carried out employing a similar method except the cells were incubated for 12 hours in the presence of the DNA precipitates, and the RA was added at 1 μM for another 24 hours before harvesting the cells. 2, 5, and 4 μg of the reporter, pRAS-βGAL, and pUC19 were used, respectively.
Similarly, when the same set of reporters as in FIG. 4 were transfected into F9 cells, only MHC-R (5-nucleotide spacer) and TREp are potent RAREs. In contrast, its RARE antecedents (MHC-N, MHC+1, MHC-T) are inert.

[2] = target: T1, TRβ; assay: Gel retardation DNA-binding assay with TRβ-expressing COS cell extracts; design: expressed in transfected cells; host or cells: COS cells (whole-cell extract); details: unlabeled competitor oligonucleotide; COS cells expressing TRβ
Procedure: (§2) For DNA binding assays, COS cells were cultured in DMEM with 10% calf bovine serum and transfected by the calcium phosphate method with 20 μg of the pCMX receptor expression plasmid for 6 hours followed by a glycerol shock. After incubating the transfected COS cells for another 48 hours, the cells were harvested to prepare extracts for the DNA binding assay, carried out as described by Damm et al., Nature 339: 593-597 (1989). The extracts were made in 20 mM HEPES (pH 7.4), 0.4 M KCl, 2 mM DTT and 20% glycerol. A similar method was employed to prepare a whole cell extract from F9 stem cells. For the binding, 5 μg (COS) or 10 μg (F9) of proteins was incubated on ice for 20 minutes, first in 20 mM HEPES, 80 mM KCl, 1 mM DTT, 0.1% NP40, 2.5 μg of poly dI/dC, and 10% glycerol (cold competitor oligonucleotides, when included, were added during this pre-incubation period). Then 40 fmole of ^32P-labeled oligonucleotide probe (1-2×10^5 cpm, prepared by filling-in reaction using Klenow polymerase in the presence of α-^32P-dCTP) was added to the reaction mixture, followed by incubation at room temperature for 30 minutes. The receptor-DNA complexes were resolved by electrophoresis through 5% polyacrylamide gel containing 5% glycerol at 6 V/cm at room temperature.
Oligonucleotides listed in FIG. 3 were used as a probe to test specific DNA-binding of the RARα and TRβ in a gel retardation assay.
Using the mobility shift assay, the DNA-binding capacity of extracts from COS cells expressing TRβ and RARα to these sequences was also tested.

[3] = target: T2, RARα; assay: Gel retardation DNA-binding assay with RARα-expressing COS cell extracts; design: expressed in transfected cells; host or cells: COS cells (whole-cell extract); details: for competition for RARα binding to 32P-labeled βRARE: unlabeled competitor oligonucleotide, COS cell extracts
Procedure: as §2
Oligonucleotides listed in FIG. 3 were used as a probe to test specific DNA-binding of the RARα and TRβ in a gel retardation assay. On the βRARE, a faint background binding activity was detected in the mock transfected COS cell extract. […] In each case the result obtained from in vivo transactivation and in vitro DNA binding are consistent.
Using the mobility shift assay, the DNA-binding capacity of extracts from COS cells expressing TRβ and RARα to these sequences was also tested. […] This pattern is consistent with that of the in vivo activation (FIG. 4). A reciprocal pattern was obtained when the same oligonucleotides were used to compete RARα binding to the ^32P-labeled βRARE. […] This provides a striking example of the role of half-site spacing in generating a functional response element.

[4] = system: endogenous RA receptor; assay: Delta-MTV-CAT constructs, RA induction in CV-1 cells without cotransfected RAR expression vector; type: cell-based, monkey
Procedure: (§3) Cells were transfected in 10 cm dishes with 10 μg of DNA containing 5 μg of reporter plasmid, 1-2 μg of either RSV-LUC (a), or RSV-βGAL or pCH110 (c and d), pGEM4 as carrier DNA, and for the experiments shown in a and d, 1 μg of RSV-RAR expression vector or the same amount of an RSV vector generating a nonsense transcript. Cells were harvested 1 day after addition of retinoic acid. All CAT assays represent equivalent amounts of β-galactosidase activity; β-GAL assays were normalized to luciferase activity.

[5] = target: T3, RAR; assay: Delta-MTV constructs, RA induction in CV-1 cells with cotransfected RAR expression vector; type: cell-based; details: Delta-MTV-CAT constructs; CV-1 cells
Procedure: Inspection of the sequences of βRE1, βRE2, and βRE3 (see FIG. 2b) identifies a tandem repeat of the 6 bp motif. The center to center separation of 11 bp between these repeats is one turn of the DNA helix. […] Apparently, a single half site element of the RARβ gene would reciprocally be responsive to the TR, ER, and/or other members of the receptor superfamily.
as §3

[6] = target: T4, Thyroid hormone receptor beta (TRβ), in …; assay: cell_activity; T3 100 nM, CV-1; details: tags: pRShTRβ, 5'-agct overhangs
Procedure: as §1, with “1139–1146” for “1139-1146”, “(T_3,” for “(T3,”, “1,25-(OH)_2” for “1,25-(OH)2”, “D_3,” for “D3,”
(§4) Starting from the MHC-TRE (MHC-N), a set of oligonucleotides (see FIG. 4a) were designed to introduce variations in the half-site spacing (MCH+1), the half-site sequence (MHC-T), or both (MHC-R). A single copy of these oligonucleotides was placed in the basal reporter construct ΔSV-CAT (designated by "(−)" in FIG. 4b), giving rise to a set of CAT reporter plasmids together with one encoding TREp. Parallel cotransfections with expression plasmids for TRβ or RARα were performed in CV-1 cells along with the ΔSV-CAT reporter containing a single copy of the variant HRE. After addition of hormone (RA, 1 μM; T_3, 100 nM), the cell extracts were assayed for the CAT activity by […] the β-galactosidase activity produced by cotransfected pRAS-βGAL. In the figure, numbers in the columns indicate the level of induction of CAT activity by the hormone.

[7] = target: T5, Retinoic acid receptor alpha (RARα), in …; assay: cell_activity; RA 1 µM, CV-1; details: tags: RSV or pRS expression vector; 5'-agct overhangs
Procedure: as §1, with “1139–1146” for “1139-1146”, “(T_3,” for “(T3,”, “1,25-(OH)_2” for “1,25-(OH)2”, “D_3,” for “D3,”
as §4

Molecule	function as RARE in F9 cells [1]	activity [6]	activity [7]	other results
MHC-T: MHC-N with the AGGACA half-site corrected to AGGTCA (SEQ ID NO:23) (AGCTGGAGGTGACAGGAGGTCAGCAAGCT; DNA, backbone not given here; double-stranded response element with agct overhangs, cloned into reporter plasmid)	inert	–	–	competition for TRβ binding (mobility shift assay) [2]: efficient competition; competition for RARα binding to 32P-labeled βRARE [3]: fails to compete efficiently
DR-5: perfect tandem repeat of AGGTCA hexamers separated by 5 nucleotides (SEQ ID NO:29) (AGCTTCAGGTCACCAGGAGGTCAGAGAGCT; DNA, backbone not given here; double-stranded DNA response element with agct overhangs, cloned into reporter)	functional RARE	–	–	RARα binding to labeled oligonucleotide probe ([3]; gel retardation, RARα COS cell extract): specific protein-DNA complex
5′-AAGCTTAAG-GGTTCA-CCGAA-AGTTCA-CTCAGCTT-3′ (SEQ ID NO:7) (AAGCTTAAGGGTTCACCGAAAGTTCACTCAGCTT; listed as DNA, chemistry not given here) [βRE3, oligonucleotide including the β retinoic acid response element]	–	–	–	RA-dependent induction in the absence of cotransfected RAR expression vector [4]: robust RA-dependent induction; increase of induction by cotransfection of RAR-alpha expression vector [5]: two-fold
MHC-R: MHC-T with half-site spacing increased by one nucleotide (SEQ ID NO:24) (AGCTGGAGGTGAACAGGAGGTCAGCAAGCT; DNA, backbone not given here; double-stranded response element with agct overhangs, cloned into reporter plasmid)	potent RAREs	–	–	competition for TRβ binding (mobility shift assay) [2]: poor competitors; competition for RARα binding to 32P-labeled βRARE [3]: effective competitors
B1	–	–	–	activity ([6]; label: 32P): 10 fold induction
B2	–	< 2 fold induction	4 fold induction	–
B3	–	14 fold induction	9 fold induction	–
B4	–	–	7.4 fold induction	–
B5	–	15 fold induction	2.6 fold induction	–
